Source: ChEMBL document CHEMBL3886965, “Naphthylurea derivatives and medical applications thereof” (2016)

Target: Platelet-derived growth factor receptor beta (Homo sapiens, UniProt P09619)
Test: The rest of the stock solutions was storaged at ⿿20° C. after subpackage.

Platelet-derived growth factor receptor beta, sequence (P09619 whole entry): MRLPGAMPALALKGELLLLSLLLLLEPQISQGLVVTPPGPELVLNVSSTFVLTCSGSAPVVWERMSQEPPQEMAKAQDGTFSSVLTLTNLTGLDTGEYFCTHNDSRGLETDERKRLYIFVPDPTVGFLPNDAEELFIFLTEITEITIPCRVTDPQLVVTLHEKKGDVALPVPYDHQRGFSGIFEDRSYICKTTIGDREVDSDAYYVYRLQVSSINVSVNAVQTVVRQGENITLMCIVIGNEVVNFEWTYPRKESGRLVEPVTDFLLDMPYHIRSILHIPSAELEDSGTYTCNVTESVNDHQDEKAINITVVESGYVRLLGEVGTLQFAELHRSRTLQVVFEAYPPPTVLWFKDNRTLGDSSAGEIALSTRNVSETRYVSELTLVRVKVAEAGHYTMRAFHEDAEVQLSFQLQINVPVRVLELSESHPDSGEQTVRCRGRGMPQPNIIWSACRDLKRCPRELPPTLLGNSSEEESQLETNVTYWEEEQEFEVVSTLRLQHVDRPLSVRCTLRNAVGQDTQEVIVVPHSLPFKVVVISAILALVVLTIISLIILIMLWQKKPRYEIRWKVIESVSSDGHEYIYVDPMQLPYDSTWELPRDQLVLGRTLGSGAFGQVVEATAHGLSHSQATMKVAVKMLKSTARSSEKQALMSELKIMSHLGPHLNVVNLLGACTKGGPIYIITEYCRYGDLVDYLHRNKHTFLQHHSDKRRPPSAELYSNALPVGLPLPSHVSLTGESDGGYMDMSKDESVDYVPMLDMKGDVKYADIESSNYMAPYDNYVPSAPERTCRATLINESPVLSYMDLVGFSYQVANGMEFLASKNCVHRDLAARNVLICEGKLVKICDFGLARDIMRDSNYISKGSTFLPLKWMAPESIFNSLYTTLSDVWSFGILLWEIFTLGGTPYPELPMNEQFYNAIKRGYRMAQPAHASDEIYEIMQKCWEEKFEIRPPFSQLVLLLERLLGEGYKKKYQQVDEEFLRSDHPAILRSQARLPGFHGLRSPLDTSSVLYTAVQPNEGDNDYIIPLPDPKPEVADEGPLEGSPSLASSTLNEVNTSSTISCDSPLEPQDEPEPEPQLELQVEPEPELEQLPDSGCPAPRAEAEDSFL

Row | Structure (SMILES) | IC50
1 | Cc1cccc(NC(=O)Nc2ccc(-c3ccc(OCCC(C)(C)N)c4[nH]nc(N)c34)c3ccccc23)c1 | 155 nM
2 | Cc1cccc(NC(=O)Nc2ccc(-c3ccc(OCCCN4CCCC4)c4[nH]nc(N)c34)c3ccccc23)c1 | 45.4 nM
3 | Cc1ccc(F)c(NC(=O)Nc2ccc(-c3ccc(OCCCN4CCCC4)c4[nH]nc(N)c34)c3ccccc23)c1 | 16.3 nM
4 | Cc1cccc(NC(=O)Nc2ccc(-c3cncc4[nH]nc(N)c34)c3ccccc23)c1 | 6.7 nM
5 | Cc1ccc(F)c(NC(=O)Nc2ccc(-c3ccc(OCCC(C)(C)N)c4[nH]nc(N)c34)c3ccccc23)c1 | 106 nM
6 | Cc1ccc(F)c(NC(=O)Nc2ccc(-c3cncc4[nH]nc(N)c34)c3ccccc23)c1 | 25.4 nM
